Entries after “also recorded” stand apart in the source; their conditions may differ.
Key:
HEV-MTase [1] = molecular target: T1, HEV-MTase (Hepatitis E virus genotype 1, UniProt P33424); test: Cell-free inhibition of HEV-MTase activity (MTase-Glo Methyltransferase Assay); format: biochemical; conditions: 0.675 μM enzyme; for Inhibition of HEV-MTase activity: 1 μM compound
T1 construct: made in house; host or cells: E. coli BL21-DE3

HEV-MTase [2] = molecular target: T1, HEV-MTase; test: MicroScale Thermophoresis (MST) binding affinity; conditions: 50 nM MTase, HPPA 10 μM to 150 pM; read-out: Dissociation constant (Kd)
p6 HEV-Luc Replicon = test: HEV replicon Renilla luciferase assay in Huh7 cells; format: cell-based, Hepatitis E Virus; conditions: for Inhibition of HEV Replicon (luciferase activity): Huh7 cells
HEV-ORF2 [3] = test: Immunofluorescence assay of HEV ORF2; format: cell-based, Hepatitis E Virus; conditions: 800 μM, 7 days post-transfection; untreated 100%
HEV-ORF2 [4] = test: Western blot of HEV ORF2; format: cell-based, Hepatitis E Virus; conditions: treated vs untreated cells, 7 days post-transfection
Influenza virus = system: Influenza virus; design: method as in earlier work; conditions: cited from earlier work
in vitro = conditions: human, Huh7 cells
[5] = Cell viability assay (MTT); conditions: human, Huh7 cells
Huh7 cells = test: Cell viability assay (MTT)

T1 sequence (P33424 33-353): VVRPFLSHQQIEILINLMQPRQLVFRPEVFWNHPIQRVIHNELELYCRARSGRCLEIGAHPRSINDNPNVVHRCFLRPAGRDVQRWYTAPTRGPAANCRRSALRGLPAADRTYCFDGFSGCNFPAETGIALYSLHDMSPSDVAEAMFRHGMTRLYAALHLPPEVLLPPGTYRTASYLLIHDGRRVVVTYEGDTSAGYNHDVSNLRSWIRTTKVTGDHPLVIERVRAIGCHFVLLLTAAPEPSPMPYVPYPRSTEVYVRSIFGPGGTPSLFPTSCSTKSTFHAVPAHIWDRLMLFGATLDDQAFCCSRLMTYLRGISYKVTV

Row | SMILES | Inhibition of HEV-MTase activity (HEV-MTase [1]) | IC50 (HEV-MTase [1]; 1 μM SAM, 0.5 mM GTP, 37 °C, 2 h, ligand 0 to 10 μM) [µM] | Kd (HEV-MTase [2]) [µM] | IC50 (p6 HEV-Luc Replicon; Hepatitis E virus, Huh-7, 72 h, read-out: 50% inhibitory concentration (IC50), HEV replicon) [µM] | Inhibition of HEV Replicon (luciferase activity) (p6 HEV-Luc Replicon) | Inhibition of HEV Replicon (luciferase activity) (p6 HEV-Luc Replicon; listed as HPPA) | ORF2 fluorescence level (HEV-ORF2 [3]) | ORF2 expression (Western blot) (HEV-ORF2 [4]) | Influenza virus propagation (Influenza virus) | viability at 72 h, 18.7 µM (in vitro) [%] | CC50 at 72 h [5] [µM] | Cytotoxic effects (Huh7 cells)
1 | CO[C@H]1O[C@H](CO)[C@@H](O)[C@H](O)[C@@H]1O [Compound 6, (2R,3S,4S,5S,6S)-2-(hydroxymethyl)-6-methoxyoxane-3,4,5-triol] | inhibited the MTase activity |  |  |  |  |  |  |  |  |  |  | 
2 | O=C(O)Cc1ccc(O)cc1 [Compound 2, 2-(4-hydroxyphenyl)acetate] | inhibited the MTase activity |  |  |  |  |  |  |  |  |  |  | 
3 | O=C(O)CCc1ccc(O)cc1 [Compound 1, 3-(4-hydroxyphenyl)propionic acid] | maximum inhibition among all the inhibitors; also recorded: inhibited the MTase activity | 0.932 ± 0.15 | ~2 | 77.1 ± 18.7 | showed the inhibition of HEV Replicon | significantly reduced | ~ 25% | decrease in ORF2 expression | prevents Influenza virus propagation | ~95 | > 1000 | without any cytotoxic effects

Source: publication PMC9415367 (Viruses, 2022)
